≈ marks a conversion by molar mass, not a printed value.
Key:
[1] = Solubility in water at 37° C. (excess powder, CoQ10 passing into solution by UV or HPLC); type: physicochemical; conditions: thermodynamic from solid
Experimental: The solubility in water at 37° C. (physiological temperature) of the composition according to the present invention was compared with that of the compositions in the examples of comparison.
Verification is carried out after 1 hour and 24 hours (balanced) using the suitable analytical method (for example UV or HPLC spectrophotometry) of the maximum quantity of coenzyme Q10 that passes into the solution.

[2] = system: H9C2 cells; assay: Absorption in cardiomyoblasts: intracell penetration and penetration of the mitochondrial membrane, CoQ10 quantified by HPLC; type: cell-based, rats; conditions: cultured cells after administration; FIG. 2
Experimental: Despite the large number of clinical studies on the effects of Coenzyme Q10 supplementation, there are very few experimental data concerning the content of coenzyme Q10 in mitochondria and the cell energy condition after supplementation. Probably, controversial results of clinical and in vitro studies are mainly due to the bio-availability of the form of coenzyme Q10 used.
For this analysis, T67 cells of human astrocytoma and H9C2 cells from rats, deriving from the heart, were cultured in a Dulbecco's modified Eagle medium (DMEM), supplemented with 10% of fetal bovine serum (FBS), 100 Ul/ml of penicillin, 100 μg/ml of streptomycin and 40 μg/ml of gentamicin, in an atmosphere of 5% CO2 at 37° C., with saturation humidity. The vitality of the cells and their number were measured using the exclusion method with Tripan blue (Lowry et al.). The mitochondria were isolated using known procedures (Chomyn, 1996). The cells treated were washed carefully with PBS before the extraction procedures. The extraction of the coenzyme Q10 from the isolated cells and mitochondria was performed as described by Takada et al. (Takada et al., 1984). The quantification of the coenzyme Q10 was done by means of HPLC analysis. […]

With `COC1=C(OC)C(=O)C(C/C=C(\C)CC/C=C(\C)CC/C=C(\C)CC/C=C(\C)CC/C=C(\C)CC/C=C(\C)CC/C=C(\C)CC/C=C(\C)CC/C=C(\C)CCC=C(C)C)=C(C)C1=O` [CoQ10, ubidecarenone] the solubility at 1 h ([1]; after 1 hour) was 1 µg/mL (≈ 1.16 µM), the solubility at 24 h ([1]; after 24 hours (balanced)) was 4 µg/mL (≈ 4.63 µM) and the “CoQ10 passing from the whole cells to the mitochondria” value [2] was 4%.

— patent US9675564B2, “Composition based on ubidecarenone” (Asoltech Srl, priority 2011, dated 2017)
